Key:
[1] = test system: T47D; assay: Growth inhibition of human T47D cells assessed as cell growth at 0.1 uM incubated for 48 hrs by sulforhodamine B assay relative to control; assay type: functional; settings: read-out: Activity
[2] = test system: BT-549; assay: Growth inhibition of human BT549 cells assessed as cell growth at 0.1 uM incubated for 48 hrs by sulforhodamine B assay relative to control; assay type: functional; settings: BT-549, 48 h, read-out: Activity
[3] = test system: LOX IMVI; assay: Growth inhibition of human LOXIMVI cells assessed as cell growth at 0.1 uM incubated for 48 hrs by sulforhodamine B assay relative to control; assay type: functional; settings: read-out: Activity
[4] = test system: UO-31; assay: Growth inhibition of human UO31 cells assessed as cell growth at 0.01 uM incubated for 48 hrs by sulforhodamine B assay relative to control; assay type: functional; settings: UO-31, 48 h, read-out: Activity
[5] = test system: SW-620; assay: Growth inhibition of human SW620 cells assessed as cell growth at 1 uM incubated for 48 hrs by sulforhodamine B assay relative to control; assay type: functional; settings: SW-620, 48 h, read-out: Activity
[6] = test system: A498; assay: Growth inhibition of human A498 cells assessed as cell growth at 0.01 uM incubated for 48 hrs by sulforhodamine B assay relative to control; assay type: functional; settings: A498, 48 h, read-out: Activity
[7] = test system: OVCAR-5; assay: Growth inhibition of human OVCAR5 cells assessed as cell growth at 0.01 uM incubated for 48 hrs by sulforhodamine B assay relative to control; assay type: functional; settings: OVCAR-5, 48 h, read-out: Activity
[8] = test system: SF-268; assay: Growth inhibition of human SF268 cells assessed as cell growth at 100 uM incubated for 48 hrs by sulforhodamine B assay relative to control; assay type: functional; settings: SF-268, 48 h, read-out: Activity
[9] = test system: RPMI-8226; assay: Growth inhibition of human RPMI8226 cells incubated for 48 hrs by sulforhodamine B assay; assay type: functional, cell-based; settings: RPMI-8226, 48 h
[10] = test system: MDA-MB-435; assay: Growth inhibition of human MDA-MB-435 cells incubated for 48 hrs by sulforhodamine B assay; assay type: functional, cell-based; settings: MDA-MB-435, 48 h
[11] = test system: SK-MEL-28; assay: Growth inhibition of human SK-MEL-28 cells incubated for 48 hrs by sulforhodamine B assay; assay type: functional, cell-based; settings: SK-MEL-28, 48 h
[12] = test system: SF-268; assay: Growth inhibition of human SF268 cells assessed as cell growth at 1 uM incubated for 48 hrs by sulforhodamine B assay relative to control; assay type: functional; settings: SF-268, 48 h, read-out: Activity
[13] = test system: LOX IMVI; assay: Growth inhibition of human LOXIMVI cells assessed as cell growth at 1 uM incubated for 48 hrs by sulforhodamine B assay relative to control; assay type: functional; settings: read-out: Activity
[14] = test system: K562; assay: Growth inhibition of human K562 cells assessed as cell growth at 0.01 uM incubated for 48 hrs by sulforhodamine B assay relative to control; assay type: functional; settings: K562, 48 h, read-out: Activity
[15] = test system: SF-539; assay: Growth inhibition of human SF539 cells incubated for 48 hrs by sulforhodamine B assay; assay type: functional, cell-based; settings: SF-539, 48 h
[16] = test system: ACHN; assay: Growth inhibition of human ACHN cells assessed as cell growth at 100 uM incubated for 48 hrs by sulforhodamine B assay relative to control; assay type: functional; settings: read-out: Activity
[17] = test system: MDA-MB-468; assay: Growth inhibition of human MDA-MB-468 cells incubated for 48 hrs by sulforhodamine B assay; assay type: functional, cell-based; settings: MDA-MB-468, 48 h
[18] = test system: RPMI-8226; assay: Growth inhibition of human RPMI8226 cells assessed as cell growth at 0.01 uM incubated for 48 hrs by sulforhodamine B assay relative to control; assay type: functional; settings: RPMI-8226, 48 h, read-out: Activity
[19] = test system: A549; assay: Growth inhibition of human A549/ATCC cells incubated for 48 hrs by sulforhodamine B assay; assay type: functional, cell-based; settings: A549, 48 h
[20] = test system: SF-295; assay: Growth inhibition of human SF295 cells incubated for 48 hrs by sulforhodamine B assay; assay type: functional, cell-based; settings: SF-295, 48 h
[21] = test system: MDA-MB-231; assay: Growth inhibition of human MDA-MB-231 cells incubated for 48 hrs by sulforhodamine B assay; assay type: functional, cell-based; settings: MDA-MB-231, 48 h
[22] = test system: SNB-19; assay: Growth inhibition of human SNB19 cells assessed as cell growth at 100 uM incubated for 48 hrs by sulforhodamine B assay relative to control; assay type: functional; settings: SNB-19, 48 h, read-out: Activity
[23] = test system: SF-539; assay: Growth inhibition of human SF539 cells assessed as cell growth at 0.1 uM incubated for 48 hrs by sulforhodamine B assay relative to control; assay type: functional; settings: SF-539, 48 h, read-out: Activity
[24] = test system: HCT-116; assay: Growth inhibition of human HCT116 cells assessed as cell growth at 100 uM incubated for 48 hrs by sulforhodamine B assay relative to control; assay type: functional; settings: HCT-116, 48 h, read-out: Activity
[25] = test system: UACC-62; assay: Growth inhibition of human UACC62 cells assessed as cell growth at 0.1 uM incubated for 48 hrs by sulforhodamine B assay relative to control; assay type: functional; settings: UACC-62, 48 h, read-out: Activity
[26] = test system: K562; assay: Growth inhibition of human K562 cells assessed as cell growth at 1 uM incubated for 48 hrs by sulforhodamine B assay relative to control; assay type: functional; settings: K562, 48 h, read-out: Activity
[27] = test system: RPMI-8226; assay: Growth inhibition of human RPMI8226 cells assessed as cell growth at 0.1 uM incubated for 48 hrs by sulforhodamine B assay relative to control; assay type: functional; settings: RPMI-8226, 48 h, read-out: Activity
[28] = test system: Hs-578T; assay: Growth inhibition of human Hs578T cells assessed as cell growth at 100 uM incubated for 48 hrs by sulforhodamine B assay relative to control; assay type: functional; settings: read-out: Activity
[29] = read-out: LC50 (the source's name)
[30] = read-out: pLC50 (the source's name) (converted)

COc1cc(Cl)cc(-c2nn(-c3cccc(NC(=O)c4ccc(N5CCOCC5)c(C(F)(F)F)c4)c3)cc2-c2ccncc2)c1
growth at 0.1 µM [1]: 95%
growth at 0.1 µM [2]: 100%
growth at 0.1 µM [3]: 95%
growth at 0.01 µM [4]: 92%
growth at 1 µM [5]: 103%
growth at 0.01 µM [6]: 59%
growth at 0.01 µM [7]: 94%
growth at 100 µM [8]: 53%
IC50 [9]: 1.5 µM
GI50 ([9]; read-out: GI50): 1.5 µM
CC50 [9, 29]: > 100 µM
TGI ([9]; read-out: TGI): > 100 µM
GI50 ([9]; read-out: pGI50 (converted)): 1.51 µM
CC50 [9, 30]: > 100 µM
TGI ([9]; read-out: pTGI (converted)): > 100 µM
GI50 ([10]; read-out: GI50): 4.38 µM
LC50 ([10]; read-out: LC50): > 100 µM
TGI ([10]; read-out: TGI): > 100 µM
GI50 ([10]; read-out: pGI50 (converted)): 43.7 µM
LC50 ([10]; read-out: pLC50 (converted)): > 100 µM
TGI ([10]; read-out: pTGI (converted)): > 100 µM
GI50 ([11]; read-out: GI50): 1.48 µM
CC50 [11, 29]: > 100 µM
TGI ([11]; read-out: TGI): > 100 µM
GI50 ([11]; read-out: pGI50 (converted)): 14.8 µM
CC50 [11, 30]: > 100 µM
TGI ([11]; read-out: pTGI (converted)): > 100 µM
growth at 1 µM [12]: 93%
growth at 1 µM [13]: 95%
growth at 0.01 µM [14]: 100%
GI50 ([15]; read-out: GI50): 3.74 µM
CC50 [15, 29]: > 100 µM
TGI ([15]; read-out: TGI): > 100 µM
GI50 ([15]; read-out: pGI50 (converted)): 3.72 µM
CC50 [15, 30]: > 100 µM
TGI ([15]; read-out: pTGI (converted)): > 100 µM
growth at 100 µM [16]: 28%
IC50 [17]: 12.1 µM
GI50 ([17]; read-out: GI50): 1.21 µM
CC50 [17, 29]: > 100 µM
TGI ([17]; read-out: TGI): > 100 µM
GI50 ([17]; read-out: pGI50 (converted)): 12 µM
CC50 [17, 30]: > 100 µM
TGI ([17]; read-out: pTGI (converted)): > 100 µM
growth at 0.01 µM [18]: 99%
IC50 [19]: 9.15 µM
GI50 ([19]; read-out: GI50): 9.15 µM
CC50 [19, 29]: > 100 µM
TGI ([19]; read-out: TGI): > 100 µM
GI50 ([19]; read-out: pGI50 (converted)): 9.12 µM
CC50 [19, 30]: > 100 µM
TGI ([19]; read-out: pTGI (converted)): > 100 µM
GI50 ([20]; read-out: GI50): 2.71 µM
CC50 [20, 29]: > 100 µM
TGI ([20]; read-out: TGI): 14.8 µM
GI50 ([20]; read-out: pGI50 (converted)): 2.19 µM
CC50 [20, 30]: > 100 µM
TGI ([20]; read-out: pTGI (converted)): 14.8 µM
GI50 ([21]; read-out: GI50): 2.53 µM
CC50 [21, 29]: > 100 µM
TGI ([21]; read-out: TGI): 32.4 µM
GI50 ([21]; read-out: pGI50 (converted)): 2.82 µM
CC50 [21, 30]: > 100 µM
TGI ([21]; read-out: pTGI (converted)): 32.4 µM
growth at 100 µM [22]: 60%
growth at 0.1 µM [23]: 85%
growth at 100 µM [24]: 25%
growth at 0.1 µM [25]: 91%
growth at 1 µM [26]: 91%
growth at 0.1 µM [27]: 107%
growth at 100 µM [28]: 42%

Reference: ChEMBL document CHEMBL4308841, “Synthesis, in vitro antiproliferative activity, and kinase inhibitory effects of pyrazole-containing diarylureas and diarylamides” (Eur J Med Chem, 2018)
